Data published in US5304113A, “Method of eradicating infectious biological contaminants” (The MCW Research Foundation, Inc., priority 1990, dated 1994).
“Also recorded” adds a separate entry of the source.

How the values were obtained:
[1] = illumination time reduction; conditions: equimolar concentrations
Text: An analog of MC 540 which we have labeled MC 540A (see structural formula below) reduces illumination times about 6-fold when used in equimolar concentrations. [drawing 3]
Merocyanine-mediated photolysis of tumor cells, viruses and protozoa appear to be primarily mediated by singlet oxygen. An additional 2-fold reduction in illumination time can therefore be achieved by performing the photosensitization step in the presence of deuterium oxide (D2 O).

[2] = test system: Friend erythroleukemia virus complex; experiment: Friend virus titer / inactivation by MC 540-mediated photosensitization; type: cell-based
Procedure: The ability of MC 540 to react with enveloped (i.e. lipid-containing) viruses was tested with the Friend erythroleukemia virus complex, the human T cell leukemia virus, HTLV-I and Herpes simplex 1. Friend virus was obtained from cell-free supernatants of cultured erythroleukemia cells or as a cell-free extract from infected animals. Simultaneous exposure to MC 540 (15 ug/ml) and light (40 J/cm^2) reduced the virus titer by ≥4 logs regardless of the origin of the virus preparation.

[3] = test system: virus-infected spleen cells, bone marrow cells, and cultured Friend erythroleukemia cells; experiment: inactivation of Friend virus-infected / transformed cells by photosensitization; type: cell-based
[4] = test system: herpes simplex virus type 1 (HSV-1); experiment: limiting dilution plaque forming assay on Vero cells (Herpes simplex 1 inactivation); type: cell-based, human
Text: (§1) The amount of virus that could be sedimented by centrifugation was reduced 5-fold after treatment with MC 540 and light. The remaining 80% of the virus were probably lysed. The small fraction that was sedimented was visibly stained by MC 540. It is conceivable that the sedimented virus fraction, although not lysed, had sustained enough photodynamic damages to make it noninfectious. For example, when the virus is Herpes simplex 1 the order of magnitude reduction is as high as 45 times.
(§2) Experiments with human herpes simplex virus type 1 (HSV-1), and human T-cell leukemia virus type I (HTLV-I) produced similar results. […] A limiting dilution plaque forming assay on Vero cells indicated a ≥5 log reduction (limit of detection) of the virus titer after only 10 min. of illumination. The standard illumination protocol calls for 90 min. of illumination. It is thus conceivable that the titer can be reduced by ≥45 log. Infectivity assays for HTLV-I have, unfortunately, not yet been developed. We therefore used reverse transcriptase activity as an indicator of virus destruction. Photosensitized and untreated aliquots of the same virus suspension were pelleted on a sucrose cushion. The pellet of the treated aliquot was about 5 times smaller and visibly red. Its reverse transcriptase content was reduced by more than 80% (Table 1). The balance of the enzyme activity was recovered in the supernatant. More than 80% of the original virus mass was apparently damaged so extensively (virtually "dissolved") that it was no longer pelletable by a two hour spin at 100,000×g. If the photosensitization of enveloped viruses bears any resemblance to the photosensitization of cells, it is reasonable to speculate that the pelletable material was also photodamaged and perhaps no longer infective.

[5] = test system: human T-cell leukemia virus type I (HTLV-I) reverse transcriptase; experiment: HTLV-I inactivation: pelletable virus and reverse transcriptase activity; type: biochemical
Text: as §1, §2

[6] = test system: HTLV-I infected cells; experiment: inactivation of HTLV-I infected cells; type: cell-based; conditions: MC 540-mediated photosensitization
[7] = Acute systemic toxicity in mice (intravenous); type: in vivo, mouse (BAF1)
Procedure: The acute systemic toxicity of MC 540 was determined by injecting groups of 10 BAF1 mice intravenously with graded doses of MC 540. Survival data were plotted on a log probit scale and fitted with a least square regression line to determine LD10 and LD50 (Table 2).

[8] = test system: P. yoelii YM; experiment: survival of mice injected with treated P. yoelii-infected blood; type: in vivo
Procedure: (§3) Using the rodent malaria species, P. yoelii YM, and P. berghei berghei as model systems, the survival of mice i.v. injected with MC 540-treated and non-treated malarious blood was monitored in vivo. […] All mice receiving untreated malarious blood died rapidly. In a subsequent experiment, serial dilutions of treated (30 minutes of dye/light) or control malarious blood (30% parasitemia) were injected into recipient mice. One hundred percent of the mice receiving 10^4 treated cells survived compared to 0% of the corresponding control group. […] It is conceivable that MC 540 treatment of infected blood enhanced the immune response of the recipient mice.

[9] = test system: P. berghei berghei; experiment: survival of mice injected with treated P. berghei-infected blood; type: in vivo
Procedure: as §3
In two experiments, all mice receiving P. berghei-infected blood (30% parasitemia), treated for 15-45 minutes with light and MC 540, died as did their control counterparts. However, 10% of the group receiving infected blood treated for 60 minutes with light and dye survived for the duration of the experiment (90 days).

[10] = test system: normal pluripotent hematopoietic stem cells; experiment: sparing of normal pluripotent hematopoietic stem cells (rescue of lethally irradiated syngeneic hosts); type: in vivo, mouse; conditions: photosensitization treatment
Procedure: (§4) When cultured F4-6 erythroleukemia cells, spleen or marrow cells from diseased animals, cell-free extracts of cultured cells, spleen cells, or marrow cells, or cell-free supernatants of F-6 cultures were injected into healthy B6D2F1 mice, the spleen weights increased from 70 mg to about 2 g within two weeks. The animals became polycythemic and, eventually, died. […] Normal pluripotent hematopoietic stem cells (as determined by the ability of photosensitized marrow cells to rescue lethally irradiated syngeneic hosts) were spared by the photosensitization treatment.

[11] = test system: mature blood cells; experiment: toxicity of photosensitization to mature blood cells; type: cell-based, mouse; conditions: photosensitization treatment
Text: 4) The same treatment protocol was much less toxic to mature blood cells and normal pluripotent hematopoietic stem cells in the mouse.
(§5) The simultaneous exposure to MC 540 and visible light also appears to kill protozoan-infected red blood cells very rapidly, but normal pluripotent hematopoietic stem cells and mature blood cells very slowly. This differential sensitivity to MC 540-mediated photolysis may be useful in purging blood and red blood cells of cell-free protozoa and protozoan-infected cells thus making the blood supply safer for use.

[12] = test system: protozoan-infected red blood cells; experiment: killing of protozoan-infected red blood cells; type: cell-based; conditions: simultaneous exposure to MC 540 and visible light
Text: as §5

[13] = test system: Friend virus; experiment: Friend virus disease in mice injected with photosensitized preparations; type: in vivo, B6D2F1 mice
Procedure: as §4

[14] = comparison dye; cited from earlier work
[15] = MC 540-mediated photosensitization
[16] = preparations photosensitized and exposed to light prior to injection

Q: Which “reduction of illumination time versus MC 540” value [1] does the source give for `CCCCN1C(=O)C(=CC=CC=C2Oc3c(ccc4ccccc34)N2CCCS(=O)(=O)O)C(=O)N(CCCC)C1=S` [MC 540A] here?
A: The value was “about 6 fold”.

Q: Which “inactivation of Friend virus suspensions (in words)” value [2, 15] does the source give for `CCCCN1C(=O)C(=CC=CC=C2Oc3ccccc3N2CCCS(=O)(=O)O)C(=O)N(CCCC)C1=S` [MC 540] here?
A: The value was “rapidly inactivated”.

Q: What about the log reduction at 15 µg/mL ([2]; light or radiation study, read-out: virus titer reduction (Friend virus)) of the same molecule?
A: The log reduction at 15 µg/mL was at least 4.

Q: And the “inactivation of Friend virus-transformed / infected cells (in words)” value [3, 15]?
A: Its value is “rapidly inactivated”.

Q: And the “rate of inactivation of virus-infected cells versus cell-free virus” value ([3]; simultaneous MC 540 (15 ug/ml) and light (40 J/cm^2))?
A: The value was “inactivated at about the same rate as cell-free virus preparations”.

Q: And the “virus titer reduction (HSV-1)” value ([4]; 10 min. of illumination, limit of detection)?
A: Its value is at least 5 log.

Q: And the “virus titer reduction (HSV-1), conceivable for standard protocol” value ([4]; 90 min. of illumination, extrapolated)?
A: The value was at least 45 log.

Q: What about the “inactivation of Herpes simplex (in words)” value [4, 15] of the same molecule?
A: Its value is “rapidly inactivated; also recorded: extremely susceptible”.

Q: What about the “HTLV-I, Reverse Transcriptase activity” value ([5]; MC 540, light 90 min) of the same molecule?
A: Its value is 37,848 cpm.

Q: And the “HTLV-I, Reverse Transcriptase activity” value ([5]; MC 540, no light)?
A: Its value is 208,548 cpm.

Q: And the “inactivation of HTLV-I (in words)” value [5, 15]?
A: The value was “rapidly inactivated; also recorded: susceptible to MC 540-mediated photosensitization”.

Q: What about the “reduction of amount of virus sedimented by centrifugation (HTLV-I)” value ([5]; MC 540 and light) of the same molecule?
A: The value was 5 fold.

Q: And the “virus probably lysed (HTLV-I)” value ([5]; MC 540 and light)?
A: The value was 80%.

Q: What about the “reduction of reverse transcriptase content of pellet (HTLV-I)” value ([5]; photosensitized vs untreated aliquot) of the same molecule?
A: The value was “more than 80%”.

Q: What about the “pellet size reduction of treated aliquot (HTLV-I)” value ([5]; photosensitized vs untreated aliquot, sucrose cushion) of the same molecule?
A: Its value is “about 5 times smaller”.

Q: And the “original virus mass no longer pelletable (HTLV-I)” value ([5]; two hour spin at 100,000×g)?
A: The value was “more than 80%”.

Q: What about the “inactivation of HTLV-I infected cells (in words)” value [6] of the same molecule?
A: The value was “rapidly inactivated”.

Q: What about the LD50 ([7]; in vivo, mouse, intravenous, log probit fit) of the same molecule?
A: Its LD50 is 84 mg/kg.

Q: And the “LD10 (mouse)” value ([7]; intravenous, log probit fit)?
A: Its value is 55 mg/kg.

Q: What about the “acute systemic toxicity (in words)” value ([7]; mouse, in vivo) of the same molecule?
A: The value was “very low”.

Q: And the “acute toxicity compared with fluorescent dyes used for angiography of the retina” value ([7]; mouse, in vivo, iv)?
A: The value was “not more toxic than the fluorescent dyes that are commonly used for the angiography of the retina”.

Q: And the selectivity ratio ([7]; mouse, in vivo, iv, read-out: LD10 relative to amount injected with mouse bone marrow graft)?
A: Its selectivity ratio is over 100000.

Q: What about the “probable cause of death after high doses (necropsy)” value ([7]; mouse, intravenous, high doses) of the same molecule?
A: Its value is “formation of large emboli of precipitated dye in major blood vessel”.

Q: What about the “amount injected with photosensitized marrow graft” value ([7]; mouse, for comparison with LD10) of the same molecule?
A: The value was 0.0004 mg/kg.

Q: What about the “survival of mice receiving 10^4 treated cells” value ([8]; 30 minutes dye/light, 30% parasitemia, control 0%) of the same molecule?
A: Its value is “One hundred”.

Q: And the “survival of recipient population (P. yoelii)” value ([8]; 60 minutes dye/light, 40%-70% parasitemia)?
A: Its value is 70%-100.

Q: What about the “protection of recipient mice (P. yoelii)” value ([8]; 90 minutes dye and light, 40%-70% parasitemia) of the same molecule?
A: The value was “total protection”.

Q: What about the “protection despite exceedingly high parasitemias (P. yoelii)” value ([8]; all stages of development) of the same molecule?
A: The value was “protection by MC 540 treatment was still obtained”.

Q: What about the “protection of recipient mice (P. yoelii), shorter illumination” value ([8]; shorter than 60 minutes illumination) of the same molecule?
A: The value was “partial protection”.

Q: What about the “course of disease in surviving mice” value ([8]; some of the surviving mice, both treatments) of the same molecule?
A: The value was “initially showed severe symptoms of malaria (e.g. splenomegaly, anemia) but later recovered”.

Q: What about the “outcome of mice receiving treated P. berghei-infected blood” value ([9]; 15-45 minutes light and MC 540, 30% parasitemia, two experiments) of the same molecule?
A: The value was “died”.

Q: And the “survival of mice receiving treated P. berghei-infected blood” value ([9]; 60 minutes light and dye, 90 days)?
A: The value was 10%.

Q: And the “effect on normal pluripotent hematopoietic stem cells (in words)” value [10]?
A: Its value is “very slowly”.

Q: What about the “effect on mature blood cells (in words)” value [11] of the same molecule?
A: Its value is “very slowly”.

Q: What about the “killing of protozoan-infected red blood cells (in words)” value [12] of the same molecule?
A: Its value is “very rapidly”.

Q: And the “inactivation of free and intracellular Friend virus and Friend virus-infected cells” value ([13]; MC 540-mediated photolysis)?
A: The value was “inactivates free Friend virus, intracellular Friend virus, and Friend virus-infected cells”.

Q: And the “effect of virus preparations exposed to dye or light alone” value ([13]; dye alone or light alone)?
A: Its value is “caused splenomegaly, polycythemia,and death”.

Q: What about the hematocrits [13, 16] of the same molecule?
A: Its hematocrits is “remained normal”.

Q: And the spleen weights [13, 16]?
A: Its spleen weights is “remained normal”.

Q: And the survival [13, 16]?
A: Its survival is “the animals survived”.

Q: For `O=C1OC2(c3ccc(O)cc3Oc3cc(O)ccc32)c2ccccc21` [fluorescein], which “LD50 (mouse), for comparison” value [14] is on record?
A: The value was 300 mg/kg.
